Source: patent US20060089335A1, “Compositions and methods for enhancing cognitive function and synaptic plasticity” (priority 2003, published 2006)
“And” between values parts separate entries of the source, which are not always exact repeats. Equal values may be shown once. “Also recorded” adds a separate entry of the source. Peptide text beside a SMILES is read from it.

Experiments:
[1] = biological target: T1, GABAB receptor (Rattus norvegicus, UniProt O88871+Q9Z0U4); conditions: rat neocortical slices; cited from earlier work
T1 construct: GABAB receptor-mediated hyperpolarizing responses to baclofen in rat neocortical slices (Kerr, 2003); host or cells: rat neocortical slices (tissue, endogenous receptor)

[2] = test system: presynaptic terminals of cultured hippocampal neurons; experiment: TBS-induced presynaptic plasticity measured by FM 1-43 dye uptake in hippocampal cultures; type: cell-based, rat; conditions: for TBS-induced potentiation / plasticity after prolonged treatment: 48 hours of incubation
[3] = test system: excitatory and inhibitory terminals; conditions: short treatment (2-24 hr)
[4] = test system: cultured hippocampal neurons; experiment: control recordings of membrane potential, synaptic inputs and firing; type: cell-based, rat; conditions: treatments of FIG. 5D
Experimental: (§1) Electrophysiology. Dual whole cell perforated patch clamp recordings were made on two interconnected cultured hippocampal pyramidal neurons. Perforated patch pipettes were front-filled with a solution containing (in mM): CsOH, 127; D-gluconic acid, 127; CsCl, 4; HEPES, 10; NaCl, 8; EGTA, 0.4; pH was adjusted to 7.25 with CsOH, and then back-filled with the same solution containing […] amphotericin B (Sigma, St. Louis, Mo.). Extracellular solution contained (in mM): NaCl, 145; KCl, 3; glucose, 15; HEPES, 10; MgCl2, 0.8-1.2; CaCl2, 1.2; 0.005 glycine (Sigma), 0.05 picrotoxin (Sigma); pH adjusted to 7.4 with NaOH. MgCl2 concentration was matched to its concentration in culture medium. In experiments where effects of drugs on neuronal activity were quantified (FIG. 4D), recordings were done in culture medium (with HEPES replacing bicarbonate/CO2 to maintain pH). All experiments were performed at room temperature. For assaying synaptic connectivity, each neuron was stimulated by 1 ms step depolarization from −70 to +30 mV in voltage-clamp mode. Only neurons with monosynaptic connections were used. […] Recordings with access resistance>20 MΩ or that varied substantially were rejected from analysis.

[5] = biological target: NMDA receptors (NR2B-containing) (Rattus norvegicus, UniProt P35439+Q00960); experiment: evoked NMDA currents ([…]), double-perforated patch; type: cell-based
Experimental: as §1
We hypothesized that one target may be the number and properties of NMDA receptors at individual synapses.

[6] = test system: postsynaptic locations of cultured hippocampal neurons; experiment: postsynaptic evoked current response to iontophoretic glutamate (AMPA-R insertion); type: cell-based, rat; conditions: Mg^++-treated culture; reversed by washout
Source text: These were generally as described in the preceding examples. Glutamatergic iontophoresis was perfomed as described [Murnick 2000].
Since we wished to correlate the above pre-synaptic findings to the plasticity of single or small clusters of postsynaptic locations, this ruled out traditional double-patch plasticity experiments in which heterogeneous populations of connections are studied. Such studies also usually confound pre-synaptic and postsynaptic effects. For this purpose, we developed a technique of high-temporal and spatial resolution glutamatergic iontophoresis that allows us to stimulate single or small clusters of postsynaptic locations (resolution ˜2 μm, 1 ms; [Murnick 2000]).
To determine whether a decrease in overall activity of a neural network leads to increased plasticity (i.e., an increase in synaptic strength in response to a pattern of stimulation) of postsynaptic locations, we assessed the effect of treatment with Mg^++ on the ability of postsynaptic locations to respond to glutamate. As described above, Mg^++ blocks the NMDA receptor channel at resting membrane potential, so Mg^++ treatment reduces the overall activity level of the neural network. As also described above, increases in postsynaptic intracellular Ca^++ stimulated by activation of NMDA receptors leads to recruitment of AMPA receptors and their insertion into the postsynaptic membrane. […]

[7] = test system: structural synaptic terminals; experiment: FM dye uptake of structural synaptic terminals, 30 AP protocol; type: cell-based, rat; conditions: 100 ng/ml BDNF
Experimental: FM 1-43 Loading and Destaining. Functional presynaptic boutons were stained with 10 μM FM 1-43 (synaptogreen, Biotium) by eliciting 30 APs at 0.5-1 Hz. This loading protocol was chosen to avoid short-term plasticity and “re-use” of vesicles through “kiss-run” mode of exocytosis (Aravanis et al., 2003). The neurons were stimulated to fire action potentials by passing 1 ms 50 mA current through platinum electrodes placed at a distance of 7 mm from both sides of the chamber. To ensure reliable action potential initiation, the current amplitude was chosen to be 50% above the threshold for action potential generation, as confirmed by whole-cell patch clamp recording. To prevent recurrent activity, excitatory postsynaptic responses were blocked completely by the addition of DL-AP5 (50 μM, Sigma) and NBQX (10 μM, Sigma) during FM loading and unloading procedures. […]
To further determine the number of these very low Pr terminals and their proportion to the whole population of functional synaptic terminals, we compared the co-localization of FM puncta obtained for the 30 AP loading with puncta obtained using fluorescent antibodies against specific presynaptic proteins. […] Twenty percent more functional synapses were detected by this procedure, also consistent with a previous report (Murthy et al., 1997). […]

T1 sequence (O88871 41-940): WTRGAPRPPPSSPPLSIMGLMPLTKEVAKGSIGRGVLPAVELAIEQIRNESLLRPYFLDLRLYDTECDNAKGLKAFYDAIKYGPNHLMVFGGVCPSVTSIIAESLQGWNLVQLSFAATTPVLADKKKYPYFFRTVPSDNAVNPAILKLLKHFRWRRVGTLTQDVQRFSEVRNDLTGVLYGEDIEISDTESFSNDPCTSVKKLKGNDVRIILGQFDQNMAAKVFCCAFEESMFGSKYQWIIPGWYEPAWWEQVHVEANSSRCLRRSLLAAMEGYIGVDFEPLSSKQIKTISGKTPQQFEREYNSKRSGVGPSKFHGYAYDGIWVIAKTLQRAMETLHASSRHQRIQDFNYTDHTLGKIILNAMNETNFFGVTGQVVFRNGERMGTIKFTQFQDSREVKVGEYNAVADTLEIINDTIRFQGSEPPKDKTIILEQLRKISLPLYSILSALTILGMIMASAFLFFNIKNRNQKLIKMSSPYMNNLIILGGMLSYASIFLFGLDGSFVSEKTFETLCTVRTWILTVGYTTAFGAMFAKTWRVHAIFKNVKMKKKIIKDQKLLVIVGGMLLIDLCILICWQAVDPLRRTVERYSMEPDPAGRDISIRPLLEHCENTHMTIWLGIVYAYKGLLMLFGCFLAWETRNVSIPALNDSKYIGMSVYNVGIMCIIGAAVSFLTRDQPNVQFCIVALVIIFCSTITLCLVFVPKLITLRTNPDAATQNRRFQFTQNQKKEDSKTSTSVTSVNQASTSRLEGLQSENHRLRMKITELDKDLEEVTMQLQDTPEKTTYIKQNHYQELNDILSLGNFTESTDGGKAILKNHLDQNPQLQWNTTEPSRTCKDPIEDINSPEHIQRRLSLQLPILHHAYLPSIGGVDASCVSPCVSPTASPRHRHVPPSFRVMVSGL
T1 sequence (Q9Z0U4 17-960): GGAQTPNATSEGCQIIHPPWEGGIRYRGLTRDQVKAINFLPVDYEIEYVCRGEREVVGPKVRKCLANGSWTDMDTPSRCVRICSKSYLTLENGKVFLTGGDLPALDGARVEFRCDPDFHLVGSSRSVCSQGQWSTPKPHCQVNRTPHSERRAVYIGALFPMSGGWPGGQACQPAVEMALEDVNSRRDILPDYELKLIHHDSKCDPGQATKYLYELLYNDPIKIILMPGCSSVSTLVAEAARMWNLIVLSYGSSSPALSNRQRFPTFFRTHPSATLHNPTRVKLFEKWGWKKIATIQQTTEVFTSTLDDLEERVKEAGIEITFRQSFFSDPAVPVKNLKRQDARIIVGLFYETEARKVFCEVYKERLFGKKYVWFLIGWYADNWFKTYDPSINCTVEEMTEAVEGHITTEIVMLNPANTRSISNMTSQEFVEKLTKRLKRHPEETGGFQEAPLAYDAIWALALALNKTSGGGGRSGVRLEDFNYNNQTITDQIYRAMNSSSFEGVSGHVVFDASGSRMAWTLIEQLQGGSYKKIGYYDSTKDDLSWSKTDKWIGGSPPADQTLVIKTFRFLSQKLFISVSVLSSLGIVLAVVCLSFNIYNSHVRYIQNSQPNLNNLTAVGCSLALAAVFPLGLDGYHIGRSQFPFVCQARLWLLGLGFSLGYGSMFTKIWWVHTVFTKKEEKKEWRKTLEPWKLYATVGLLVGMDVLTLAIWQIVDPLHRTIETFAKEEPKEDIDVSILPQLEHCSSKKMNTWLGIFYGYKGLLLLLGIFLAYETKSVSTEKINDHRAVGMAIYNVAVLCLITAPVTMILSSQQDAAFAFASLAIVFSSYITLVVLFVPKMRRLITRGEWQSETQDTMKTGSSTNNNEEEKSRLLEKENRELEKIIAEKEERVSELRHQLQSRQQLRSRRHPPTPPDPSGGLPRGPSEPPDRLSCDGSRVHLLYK
Chain of NMDA receptors (NR2B-containing) (Q00960 27-1482, other chains not shown): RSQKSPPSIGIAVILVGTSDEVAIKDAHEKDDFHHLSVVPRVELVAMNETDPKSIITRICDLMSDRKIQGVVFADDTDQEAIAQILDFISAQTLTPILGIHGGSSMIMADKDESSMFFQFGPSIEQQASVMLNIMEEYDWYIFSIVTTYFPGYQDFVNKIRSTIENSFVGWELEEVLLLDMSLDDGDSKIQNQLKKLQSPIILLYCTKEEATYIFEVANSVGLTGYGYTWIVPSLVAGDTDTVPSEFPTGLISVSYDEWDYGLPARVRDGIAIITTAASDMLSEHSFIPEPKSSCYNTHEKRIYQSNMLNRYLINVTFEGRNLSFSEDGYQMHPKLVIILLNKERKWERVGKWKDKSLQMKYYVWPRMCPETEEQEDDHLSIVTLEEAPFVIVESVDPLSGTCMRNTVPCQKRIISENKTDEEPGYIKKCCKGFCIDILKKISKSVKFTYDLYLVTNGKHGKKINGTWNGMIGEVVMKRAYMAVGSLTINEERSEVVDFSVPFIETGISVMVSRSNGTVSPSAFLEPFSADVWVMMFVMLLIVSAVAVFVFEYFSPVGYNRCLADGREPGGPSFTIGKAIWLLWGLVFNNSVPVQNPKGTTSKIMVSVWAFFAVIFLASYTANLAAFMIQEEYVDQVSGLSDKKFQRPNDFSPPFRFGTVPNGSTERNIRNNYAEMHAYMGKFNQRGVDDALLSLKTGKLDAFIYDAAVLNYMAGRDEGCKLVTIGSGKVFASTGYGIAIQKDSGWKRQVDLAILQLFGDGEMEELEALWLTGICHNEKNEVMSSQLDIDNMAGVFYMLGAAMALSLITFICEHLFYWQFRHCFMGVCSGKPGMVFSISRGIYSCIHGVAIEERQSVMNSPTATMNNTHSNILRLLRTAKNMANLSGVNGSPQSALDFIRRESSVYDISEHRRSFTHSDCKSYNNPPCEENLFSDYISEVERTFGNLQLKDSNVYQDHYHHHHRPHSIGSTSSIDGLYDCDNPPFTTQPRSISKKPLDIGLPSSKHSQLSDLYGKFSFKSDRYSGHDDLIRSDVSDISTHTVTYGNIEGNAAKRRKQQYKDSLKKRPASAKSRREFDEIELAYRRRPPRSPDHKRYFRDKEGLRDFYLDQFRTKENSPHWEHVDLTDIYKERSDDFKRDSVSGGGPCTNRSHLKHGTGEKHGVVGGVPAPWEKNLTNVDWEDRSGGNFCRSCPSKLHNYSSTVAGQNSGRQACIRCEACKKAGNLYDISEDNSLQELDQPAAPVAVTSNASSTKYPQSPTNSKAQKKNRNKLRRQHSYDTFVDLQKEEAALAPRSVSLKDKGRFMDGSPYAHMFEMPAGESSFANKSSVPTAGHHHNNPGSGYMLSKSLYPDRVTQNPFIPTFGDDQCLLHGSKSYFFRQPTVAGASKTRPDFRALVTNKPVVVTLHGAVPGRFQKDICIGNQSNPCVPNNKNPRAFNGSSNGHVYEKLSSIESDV

**Q.** For N=C(N)NCCC[C@H](N)C(=O)O [L-Arg], which “potency as potentiator of GABAB receptor-mediated hyperpolarizing responses to baclofen” value (“potency as potentiator” below) [1] is on record?
**A.** less potent

**Q.** With N[C@@H](CS)C(=O)O [L-Cys] as the molecule, how does the “potency as potentiator” value [1] read?
**A.** less potent

**Q.** Which “potency as potentiator” value [1] does the source give for N[C@@H](CSSC[C@H](N)C(=O)O)C(=O)O [L-Cystine] here?
**A.** less potent

**Q.** For CC(C)C[C@H](N)C(=O)O [L-Leu], which “potency as potentiator” value [1] is on record?
**A.** Most potent

**Q.** With CSCC[C@H](N)C(=O)O [L-Met] as the molecule, how does the “potency as potentiator” value [1] read?
**A.** less potent

**Q.** With CC(C)C[C@H](NC(=O)[C@@H](N)Cc1ccccc1)C(=O)O [L-Phe-Leu] (H-Phe-Leu-OH) as the molecule, how does the “potency as potentiator” value [1] read?
**A.** Most potent

**Q.** With N[C@@H](Cc1ccccc1)C(=O)N[C@@H](Cc1ccccc1)C(=O)O [L-Phe-Phe] (H-Phe-Phe-OH) as the molecule, how does the “potency as potentiator” value [1] read?
**A.** Most potent

**Q.** Which “potency as potentiator” value [1] does the source give for N[C@@H](Cc1ccccc1)C(=O)O [L-Phe] here?
**A.** Most potent

**Q.** For N[C@@H](CO)C(=O)O [L-Ser], which “potency as potentiator” value [1] is on record?
**A.** less potent

**Q.** Which “potency as potentiator” value [1] does the source give for C[C@@H](O)[C@H](N)C(=O)O [L-Thr] here?
**A.** less potent

**Q.** Which “potency as potentiator” value [1] does the source give for N[C@@H](Cc1ccc(O)cc1)C(=O)O [L-Tyr] here?
**A.** less potent

**Q.** For CC(C)[C@H](N)C(=O)O [L-Val], which “potency as potentiator” value [1] is on record?
**A.** less potent

**Q.** What does the source list for NS(=O)(=O)c1cccc2c1c([N+](=O)[O-])cc1nc(O)c(O)nc12 [NBQX, reference compound]?
**A.** TBS-induced potentiation / plasticity after prolonged treatment [2]: no significant TBS-induced potentiation; also recorded: lose plasticity; change of synaptic density [3]: No short treatment (2-24 hr, baclofen, nimodepine, NBQX, and TTX) produced a significant change of synaptic density

**Q.** Which results are given for [Zn+2] [Zn^++]?
**A.** plasticity of presynaptic terminals after partial block of Ca flux ([2]; 0.4 mM Mg^++ added or 5 mM Zn^++ two weeks, 10 mM nimodipine 2 days): significant increases of plasticity; optimal concentration for plasticity (maximal potentiability) ([2]; 2 weeks treatment): 2 mM; increase of synaptic strength at optimum concentration ([2]; FIGS. 6H-6J): up to approximately five-fold; change in average firing rates of neurons within cultured neural networks [4]: none of these treatments induces a significant change

**Q.** For CN1C(=O)CN=C(c2ccccc2F)c2cc([N+](=O)[O-])ccc21 [flunitrazepam, reference compound], which “TBS-induced potentiation / plasticity after prolonged treatment” value [2] is on record?
**A.** no significant TBS-induced potentiation; also recorded: lose plasticity

**Q.** Which “reduction of TBS-induced presynaptic potentiation” value ([2]; 1 μM ifenprodil, 1.2 mM Mg^2+ cultures) does the source give for CC(C(O)c1ccc(O)cc1)N1CCC(Cc2ccccc2)CC1 (stereo not drawn) [ifenprodil] here?
**A.** 50% and 48±7%

**Q.** And the reduction of current [5]?
**A.** 53%

**Q.** What about the “reduction of total charge transfer” value [5] of the same molecule?
**A.** 85% and 45%

**Q.** And the “reduction of total charge transfer of EPSCNMDA” value [5]?
**A.** 80% and 45% and 45±2%

**Q.** What does the source list for D-AP5 [reference compound]?
**A.** theta-burst-induced changes of Pr (F2/F1, N2/N1, S2/S1) in presence of NMDAR blocker [2]: No detectable changes of Pr; effect of NMDA antagonist on the increase in postsynaptic current [6]: blocked it

**Q.** Which “potency as potentiator” value [1] does the source give for L-Ile here?
**A.** Most potent

B1: BDNF: neurotrophin known to increase the Pr of synaptic terminals (protein, UniProt P23560 19-247, looked up)
Neurotrophic factor BDNF …: APMKEANIRGQGGLAYPGVRTHGTLESVNGPKAGSRGLTSLADTFEHVIEELLDEDQKVRPNEENNKDADLYTSRVMLSSQVPLEPPLLFLLEEYKNYLDAANMSMRVRRHSDPARRGELSVCDSISEWVTAADKKTAVDMSGGTVTVLEKVPVSKGQLKQYFYETKCNPMGYTKEGCRGIDKRHWNSQCRTTQSYVRALTMDSKKRIGWRFIRIDTSCVCTLTIKRGR
**Q.** Which “FM dye uptake by structural synaptic terminals” value [7] does the source give for B1 here?
**A.** all structural synaptic terminals became capable of taking up FM dye
